Test results: publication PMC10432564, “Pharmacological perturbation of the phase-separating protein SMNDC1” (Nature Communications, 2023)

Assays:
SMNDC1-GFP αTC1 clones = assay: Live imaging of endogenously tagged SMNDC1-GFP; format: cell-based, mouse; details: 50 µM, 12–16 h
Excerpt: (§1) Cell lines with fluorescent tags in the endogenous intron loci of different genes were generated as described in Serebrenik et al., and Reicher et al.[39],[74]. Cells were transiently transfected using Avalanche-Everyday Transfection Reagent with three plasmids in parallel: (1) the donor plasmid containing the artificial intron with splice acceptor and splice donor site, the fluorescent tag GFP or RFP, and a possible correction for the frame of the targeted intron, (2) a pX330 backbone containing Cas9 and the gRNA against the donor plasmid, and (3) a plasmid expressing the gRNA against the target intron (see table below). After 3–5 days, GFP- and/or RFP-positive cells were sorted on a SONY SH800 Cell Sorter to get fluorescent single cell clones. Clones were validated for the correct integration of the intron-tag via comparison of live cell images to publicly available or in-house IF images, genomic DNA PCR amplification of the respective loci, and western blots with antibodies against the target protein and/or the fluorescent tag.
(§2) Cells were imaged on a PerkinElmer Opera Phenix automated microscope with 500 ms exposure time in either GFP or RFP channel, or on a Zeiss LSM 980 microscope. For condition-independent identification nuclear markers such as Hoechst or DRAQ5^TM were used.
Images were analyzed using the high-content image acquisition and analysis software Harmony® 4.9 developed by PerkinElmer. First, nuclei were identified in the channel of the nuclear marker (DAPI/ Hoechst/ DRAQ5^TM) (with Method C, Common Threshold 0.75, Area > 10 µm^2). After the identification of nuclei, their corresponding cytoplasm was also identified using the respective nucleic acid marker (with Method A, Individual Threshold 0.15). Even though the highest staining of these nuclear markers is obviously detected in the nucleus they still produce a significant staining of the cytoplasm above background. After defining the respective cell areas, mean intensity in the different channels was measured. Finally, spots were identified with the according “Spots” algorithm (with Method A, Relative Spot Intensity > 0.053, Splitting Sensitivity: 1.0).

αTC1 cells [1] = assay: Alternative splicing, RNA sequencing (VAST-TOOLS) and RT-PCR; format: cell-based, mouse
Experimental: To perform splicing PCRs, RNA was isolated from pelleted cells using the RNeasy Mini Kit (Qiagen, #74106).
RNA sequencing libraries were prepared from low-input samples using the Smart-seq2 protocol. The subsequent library preparation from the amplified cDNA was performed using the Nextera XT DNA library prep kit (Illumina, San Diego, CA, USA). Library concentrations were quantified with the Qubit 2.0 Fluorometric Quantitation system (Life Technologies, Carlsbad, CA, USA) and the size distribution was assessed using the Experion Automated Electrophoresis System (Bio-Rad, Hercules, CA, USA). For sequencing, samples were diluted and pooled into NGS libraries in equimolar amounts.
Alternative splicing events were characterized and quantified using VAST-TOOLS[54] (2.5.1) in conjunction with the Mus musculus database (vastdb.mm2.23.06.20), based on the Genome Reference Consortium assembly GRCm38.p5 and Ensembl transcript annotation 88 (March 2017). Briefly, NGS reads were aligned for each read group independently, read groups were merged into samples and samples were combined into a summary table. […]

SMN-RFP intron 5-6, αTC1 = assay: Live imaging of SMN-RFP; format: cell-based, mouse; details: 50 µM, 16 h
Excerpt: as §1, with “Clones were validated for the correct integration of the intron-tag via comparison of live cell images to publicly available or in-house IF images, genomic DNA PCR amplification of the respective loci, and western blots with antibodies against the target protein and/or the fluorescent tag.” left out
Images were analyzed using the high-content image acquisition and analysis software Harmony® 4.9 developed by PerkinElmer. […] Even though the highest staining of these nuclear markers is obviously detected in the nucleus they still produce a significant staining of the cytoplasm above background. After defining the respective cell areas, mean intensity in the different channels was measured. […]

SMNDC1 Tudor domain = target: T1, SMNDC1 Tudor domain (Homo sapiens, UniProt O75940); assay: AlphaScreen, SMNDC1 Tudor domain / sDMA-peptide interaction
T1 sequence (O75940 65-128): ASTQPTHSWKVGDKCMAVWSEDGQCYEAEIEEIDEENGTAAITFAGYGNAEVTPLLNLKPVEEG
Excerpt: To pharmacologically perturb SMNDC1 function, we set out to identify small molecule inhibitors of SMNDC1’s Tudor domain based on perturbing its interaction with a dimethylarginine peptide. To establish an AlphaScreen[50], we coupled donor beads to purified SMNDC1’s (or SMN’s) Tudor domain via a His-Tag and acceptor beads to a biotinylated peptide corresponding to the C-terminal region of the Small nuclear ribonucleoprotein Sm D3 containing four sDMAs (Fig. 4a). […] To identify ideal concentrations for screening, we performed a cross-titration of Tudor domains and binding peptides (Supplementary Fig. 3b).
The AlphaScreen was conducted in 20 mM sodium phosphate pH 6.5, 50 mM NaCl, Tween 0.01%, BSA 0.1%. Protein concentration was optimized for each batch of purified protein. Optimal concentration was chosen at the lowest concentration with ~80% of maximum signal. […] In the first step, 10 µl of the protein solution containing either SMNDC1’s or SMN’s Tudor domain coupled to a 6xHis-Tag were distributed to 384-well plates pre-spotted with compounds and controls, shaken and incubated for 30 min at RT. Afterwards, 10 µl of peptide solution was added to each well and incubated for 1 h at RT. Finally, 5 µl of a solution containing both Streptavidin Donor and nickel chelate (Ni-NTA) Acceptor beads was added and again incubated for 1 h at RT.
Category Parameter Description
Assay Type of assay In vitro AlphaScreen / luminescence proximity
Target Tudor domain of SMNDC1
Primary measurement Decrease in luminescence signal reflecting
disruption of heterodimeric complex between
SMNDC1-Tudor domain and a peptide
corresponding to the C-terminus of Small nuclear
ribonucleoprotein Sm D3 containing 4 sDMAs
Key reagents AlphaScreen no-wash assay kit containing
Streptavidin Donor beads and nickel chelate (Ni-
NTA) AlphaScreen Acceptor beads (PerkinElmer
Assay protocol Described in Methods section
Screen Format PerkinElmer OptiPlate-384 well plate
Concentration(s) tested Typically 10 μM (0.1% DMSO)
Plate controls 32 positive control wells (Mitoxantrone, quencher),
32 negative control wells (DMSO)
Reagent/ compound dispensing system Echo 520 Liquid Handler Multidrop™ Combi
Normalization Raw signal was normalized plate-specifically by
correcting row and column-specific mean signals to
the mean signal of the entire plate, each after
removing the highest and lowest 25% of values. Raw
signal was then converted to percent of control
signal, but linear regression to plate-specific mean
signal of DMSO wells (set to 100 percent of control)
and positive control wells (set to 0% of control), after
outlier removal using a Grubbs test.
unspecific quenchers), Secondary screen (with

αTC1 cells [2] = assay: Cell death, AnnexinV and Propidium Iodide staining
Excerpt: PI+ cells (αTC1), treated with DMSO or compound 1 . Data shown as mean + standard

[3] = test system: SRRM2-RFP intron 9-10, αTC1; assay: Live imaging of SRRM2-RFP (nuclear speckles); format: cell-based, mouse
Excerpt: as §1, §2
Images were analyzed using the high-content image acquisition and analysis software Harmony® 4.9 developed by PerkinElmer. First, nuclei were identified in the channel of the nuclear marker (DAPI/ Hoechst/ DRAQ5^TM) (with Method C, Common Threshold 0.75, Area > 10 µm^2). After the identification of nuclei, their corresponding cytoplasm was also identified using the respective nucleic acid marker (with Method A, Individual Threshold 0.15). Even though the highest staining of these nuclear markers is obviously detected in the nucleus they still produce a significant staining of the cytoplasm above background. After defining the respective cell areas, mean intensity in the different channels was measured. […]

CN(C)S(=O)(=O)c1ccc(C(=O)Nc2nc(-c3ccccn3)cs2)cc1 [compound 1]
SMNDC1-GFP spots within the nucleus (SMNDC1-GFP αTC1 clones): less spots were detected within the nucleus | SMNDC1 within the nucleus (nuclear SMNDC1-GFP) (SMNDC1-GFP αTC1 clones): loss of SMNDC1 within the nucleus | alternatively spliced isoforms by RT-PCR, long-term low-dose treatment (αTC1 cells [1]; 2 µM over 5 days): could also see the effect | alternative splicing events (αTC1 cells [1]; paired-end RNA sequencing, compound over DMSO): increased retention of introns and skipping of exons | number of SMN spots in the cytoplasm (SMN-RFP intron 5-6, αTC1): increased | overall intensity of SMN (SMN-RFP intron 5-6, αTC1): decreased | IC50 (SMNDC1 Tudor domain): 500 nM | percentage of AnnexinV and Propidium Iodide (PI) positive cells (αTC1 cells [2]; 16 h after start of treatment): elevated | outcome of longer treatment (αTC1 cells [2]; longer than 12–16 h at 50 µM): cell death | AnnexinV or PI staining relative to DMSO (αTC1 cells [2]; reviewer's reading of the plot (Supplementary Fig. 5)): 2-3 times | SRRM2 and general organization of nuclear speckles [3]: affected | SRRM2 spots [3]: appeared to dissolve into the nucleoplasm | overall SRRM2 intensity [3]: slightly reduced
